The text below walks through data of patent US20210038668A1, “TRADITIONAL CHINESE MEDICINE COMPOSITION FOR PREVENTING AND/OR TREATING ISCHEMIC REPERFUSION INJURY” (TASLY PHARMACEUTICAL GROUP CO., LTD., priority 2018, published 2021).

Type in all cases: in vivo, C57BL/6 mice
In one assay the test system is cerebral infarction. Put plainly: TTC infarct size, mice after thrombolysis. The conditions noted are these: 24 h after administration, tPA 10 mg/kg alone, T541 20 mg/kg + tPA 10 mg/kg. The protocol: After reperfused for 24 hours, mice were perfused via heart by a PBS buffer precooled at 4° C. and separated brain via craniotomy; the brain was cut from front to back into 5 slices in a brain stereotaxic apparatus; bleeding condition was rapidly shoot in cold condition; then slices were put into 2% triphenyltetrazolium chloride, TTC for incubation for 15 minutes at […]; TTC staining was conducted. Non-infarct region was stained red and infarct region was not stained and still white. Brain TTC staining images were shoot and IamgeJ (Bethesda, Md., USA) was used to calculate a percentage of TTC staining infarct size in the total area of brain, and evaluate the degree of cerebral infarction.

Assay [1] relates to cerebral cortex microvessels. In words: Opening number of cerebral cortex microvessels by SEM. Particulars: 24 h after administration; tPA 10 mg/kg alone; T541 20 mg/kg + tPA 10 mg/kg. The protocol:
Scanning electron microscope (SEM): after reperfused for 24 hours, anesthetized mice were perfused 3% glutaraldehyde for 40 minutes via ventriculus sinister at a rate of 3 ml/min; the brain was taken, and the right cortical penumbra was cut off and immobilized in glutaraldehyde for 2 hours. After washed by a PBS phosphate buffer, mice were immobilized in 1% osmium tetroxide for 2 hours; a proper section was taken and fixed on a metal support. Tissue blocks were plated gold, observed and shoot by an SEM (JSM-5600LV, JEOL, Tokyo, Japan).
5 500-fold visual fields were randomly selected for each mouse under SEM to count the opening number of cerebral cortex microvessels in right hemisphere penumbra. N=3. (See lines 3 and 4 of FIG. 7)

The next assay concerns 8-OHdG. In words: ELISA of 8-OHdG in brain tissue. Particulars: brain tissue 24 hours after administration; tPA 10 mg/kg alone or + T541 20 mg/kg or ingredients at Table 7 doses. The text has this:
(§1) To compare the therapeutical effect on reperfusion injury caused by tPA thrombolysis between the traditional Chinese medicinal composition of the present invention and each ingredient (total saponins of Astragalus, the experiment was divided into the following group (tPA is combined with T541, individual ingredient thereof and compatibility of any two ingredients) specifically as follows: tPA+total saponins of Astragalus (tPA+HQ), tPA+ salvianolic acids (tPA+DS), tPA+Panax notoginseng saponins (tPA+SQ), tPA+ total saponins of Astragalus+salvianolic acids (tPA+HQ+DS), tPA+ total saponins of Astragalus+Panax notoginseng saponins (tPA+HQ+SQ), tPA+ salvianolic acids+Panax notoginseng saponins (tPA+DS+SQ) and tPA+T541. Normal saline served as an isovolumetric control. The usage number in each group is 6.
(§2) ELISA adsorption kit was used to measure the change on the content of MDA, 8-hydroxyl-2′-deoxyguanosine (8-OHdG), adenosine triphosphate (ATP), adenosine diphosphate (ADP) and adenosine monophosphate (AMP) in the penumbra field of brain tissue cortex of the mode, and the change on the activity of mitochondrial complexes I, II, IV and V. 6 samples were used to repeat the independent experiment for at least three times for each group of data.

Another assay has as its system VE-cadherin. Put plainly: Western blotting of VE-cadherin, cortex of ischemic penumbra. The conditions noted are these: brain tissue 24 hours after administration, sham = 1.00; tPA 10 mg/kg alone; T541 20 mg/kg + tPA 10 mg/kg. How it is done:
After reperfused for 24 hours, mice were perfused by normal saline; Western blotting analysis was conducted to the penumbra field of infarcted right cerebral cortex. After perfused, mice brain tissue was taken out; cerebellum and prefrontal lobe were cut off; the brain tissue of right brain close to 1 cm of the central joint of left and right hemispheres along the sagittal view; infarcted penumbra field of the rest tissues was cut off along an 45° angle; the cerebral cortex of the penumbra field was peeled off and preserved at low temperature. Right cerebral cortex was taken and added 1×RIPA lysate and a Cocktail protease inhibitor (1:100, Cell Signaling Technology, US) for full pyrolysis and ultrasonic treatment, and then 17000 g were centrifuged for 30 minutes. Supernatant was taken and added 5×loading buffer by volume, boiled for 20 minutes in boiling water, and then preserved at −80° C. Excessive supernatant was taken out and quantified by a BCA protein quantification liquor (ThermoScientific, US) to measure absorbance value at 560 nm of ELIASA and to calculate the protein concentration according to a standard curve. […] The density of electrophoretic strips was analyzed by an image analysis software Quantityone. […]

For assay [2], the system named is cerebral cortex vessels and neurons in penumbra. In words: Transmission electron microscopy of cerebral cortex. The conditions noted are these: 24 h after administration. The protocol: Transmission electron microscope (IEM): after reperfused for 24 hours, anesthetized mice were perfused 3% glutaraldehyde for 40 minutes via ventriculus sinister at a rate of 3 ml/min; the brain was taken, and the mice right cortex was cut into small pieces (1 mm×1 mm×1 mm); small pieces were immobilized in 3% glutaraldehyde for 30 minutes at room temperature or stored over night at 4° C. The brain pieces were washed on a table containing sucrose for 3 times for 15 minutes, immobilized by osmic acid for 2 hours at room temperature, washed by 0.2; PBS for 3 times for 15 minutes, dehydrated for 15 minutes respectively by 30%, 50%, 70% and 90% acetone, and dehydrated for 15 minutes for 15 minutes by 100% acetone, then preimpregnated into a pre-embedding agent mixed by 100% acetone and embedding agent according to a ratio of 1:1; and kept over the night at 37° C.; then brain pieces were impregnated by a pure embedding agent for 24 hours at 37° C., and cured for 48 hours, then naturally cooled; afterwards, brain pieces were trimmed and cut into slices with the thickness of 60 nm. The slices were stained by uranyl acetate and lead citrate, and observed and shoot by a IEM (JEM 1230, JEOL, Tokyo, Japan).

Another assay has as its system mitochondrial complex IV. Put plainly: Mitochondrial complex IV activity in brain tissue. Particulars: brain tissue 24 hours after administration; tPA 10 mg/kg alone or + T541 20 mg/kg or ingredients at Table 7 doses.
Text: as §1, §2

[3] abbreviates: tPA alone, T541 combined with tPA.

Turning to “tPA: tissue-type plasminogen activator (tPA) for thrombolysis”, the Infarct size in the assay on cerebral infarction came to 15.68 ± 4.81. In assay [1], the “Opening number of microvessels” value worked out at 21.07 ± 1.54. For the same substance, in the assay on 8-OHdG, the 8-OHdG was determined as 1.84 ± 0.11. Also, the VE-cadherin/β-actin with VE-cadherin is 0.53 ± 0.07. Besides, the “TEM: vascular endothelium and perivascular edema (in words)” value in assay [2] (tPA 10 mg/kg alone, T541 20 mg/kg + tPA) is “vascular endothelium is rough, and has obvious edema gap with surrounding tissues”. Further, in assay [2] (setting [3]), the “TEM: endothelial cell adhesion structure of cerebral cortex vessels (in words)” value was “the close adhesion structure of cerebral cortex vessels in penumbra field is opened”; the “TEM: neurons of cerebral cortex in penumbra (in words)” value was “bodies of neuron shrink and deform”. Moreover, the “Complex IV activity” value in the assay with mitochondrial complex IV is on record as 0.267 ± 0.016.
